Tests used:
enterocytes = assay: LPS-mediated NF-κB (p65) translocation in enterocytes, with and without TLR9 siRNA knock-down; type: cell-based
Protocol: FIG. 7A-E. LPS-mediated translocation in enterocytes which are either (A) untreated or treated with (B) 50 μg/ml LPS; (C) 50 μg/ml LPS+10 μM CpG; or (D) 10 μM CpG. (E) Bar graph showing the nuclear:cytoplasmic ratio for NF-κB in (A)-(D).
FIG. 9A-F. CpG-DNA reduces TLR4 signaling through TLR9 in enterocytes. (A) Western blot showing the amounts of TLR9 protein relative to actin in untreated enterocytes (Ctrl) or in enterocytes treated with 0.084 μM non-specific siRNA or siRNA specific for TLR9. (B)-(E) are immunofluorescence studies showing the relative amounts of p65 in the enterocyte nucleus versus its cytoplasm, when either (B) untreated or treated with (C) 50 μg/ml LPS; (D) 50 μg/ml LPS+10 μM CpG (in the context of normal TLR9 levels) or (E) 50 μg/ml LPS+10 μM CpG (in the context of TLR9 knockdown by siRNA). (E) Bar graph showing the results of (B)-(E).
A second series of experiments was designed to study the consequences of the TLR4 activator LPS and the TLR9 activator CpG on the mediator of activated TLR4, NFκB. As shown by comparing FIGS. 7A and B, LPS causes NFκB to translocate into the nucleus. The extent of translocation caused by LPS is decreased by co-exposure to CpG (FIGS. 7C and E).
All the foregoing three series of experiments have shown that CpG (an activator of TLR9) inhibited the effects of TLR4 activation, including its role in promoting inflammation. […]

[1] = tested on: experimental NEC in newborn mice; assay: Murine model of necrotizing enterocolitis (formula gavage + hypoxia), CpG treatment; type: in vivo, mouse
Protocol: FIG. 18A-D. Histology of intestines from mice that were (A) breast fed (control); (B) gavage fed+hypoxic to model necrotizing enterocolitis (NEC); (C) breast fed and treated with 500 μg/kg (approximately 10 μg/animal, intraperitoneally injected) CpG (control); (D) gavage fed+hypoxic to model NEC and treated with 500 μg/kg (approximately 10 μg/animal, intraperitoneally injected) CpG.
(A) Control mice (injected with saline). (B) Mice injected with 5 mg/kg of LPS. (C) Mice injected with 5 mg/kg of LPS and 1 mg/kg of CpG. (D-G) Immunohistochemical staining of terminal ileum from newborn mice that were either breast fed (“control”) or induced to develop NEC (“NEC”). Sections were stained for caspase 3 as a marker of apoptosis and enterocyte loss; positive staining is indicated by a small arrowhead. (D) Control injected with saline. (E) NEC injected with saline. (F) Control injected with 1 mg/kg CpG-DNA daily for four days. (G) NEC injected with 1 mg/kg CpG-DNA daily for four days. (H) Bar graph summarizing results, showing percent apoptosis in terminal ileum as depicted in (D)-(G).
FIG. 20A-I. Newborn mice were either breast fed (“control”) or were induced to develop NEC (“NEC”). (A) Gross micrograph of intestine of a control mouse. (B) Gross micrograph of intestine of a control mouse treated with 1 mg/kg CpG-DNA daily for four days. (C) Gross micrograph of intestine of a NEC mouse. (D) Gross micrograph of intestine of a NEC mouse treated with 1 mg/kg CpG-DNA daily for four days. (E) Micrograph of histological section of intestine of a control mouse. (F) Micrograph of histological section of intestine of a control mouse treated with CpG. (G) Micrograph of histological section of intestine of a NEC mouse. (H) Micrograph of histological section of intestine of a NEC mouse treated with CpG. (I) Summary bar graph of the above results.
FIG. 16 presents a Western blot showing expression of TLR4 and TLR9 in control mice and mice modeling necrotizing enterocolitis (“NEC”). A substantial increase in the level of TLR4, and a decrease in TLR9, was observed. […]

[2] = NEC mice, 1 mg/kg CpG-DNA daily for four days

5′-TCCATGACGTTCCTGACGTT-3′ [CpG-DNA]
attenuating effect of CpG on translocation of NFκB subunit p65 (enterocytes; enterocytes with TLR9 expression suppressed by siRNA, 50 μg/ml LPS + 10 μM CpG): virtually eliminated | extent of NFκB translocation into the nucleus caused by LPS (enterocytes; enterocytes, 50 μg/ml LPS + 10 μM CpG vs LPS alone): decreased | NEC pathology (gross and histological) [1, 2]: substantial inhibition of the NEC pathology | apoptosis in terminal ileum (caspase 3) [1, 2]: substantially reduced apoptosis | severity of experimental NEC ([1]; wild-type TLR4 mice, 500 μg/kg CpG intraperitoneally): limit the severity of experimental NEC

Reference: patent US8518903B2, “Use of toll-like receptor-9 agonists” (University of Pittsburgh—of the Commonwealth System of …, priority 2007, dated 2013)
